From the OligoGym collection come the findings set out here.

Oligonucleotides are given in HELM: sugar(base)linkage, 5' to 3'; d 2'-deoxyribose, r ribose, m 2'-O-methylribose, p phosphate. ss, as = sense and antisense strand
Note: test concentration or dose not given here.

The target in this data set is CDC34. Description: reporter assay of Huesken 2005. The settings on record: siRNA.
For the substance “RNA1{r(C)p.r(G)p.r(U)p.r(C)p.r(A)p.r(G)p.r(G)p.r(A)p.r(C)p.r(C)p.r(A)p.r(U)p.r(U)p.r(C)p.r(U)p.r(C)p.r(C)p.r(U)p.r(G)p.d(T)p.d(T)}|RNA2{r(C)p.r(A)p.r(G)p.r(G)p.r(A)p.r(G)p.r(A)p.r(A)p.r(U)p.r(G)p.r(G)p.r(U)p.r(C)p.r(C)p.r(U)p.r(G)p.r(A)p.r(C)p.r(G)p.d(T)p.d(T)}$$$RNA1{StrandType:ss}|RNA2{StrandType:as}$”, the normalised inhibition (eCFP-eYFP dual reporter) was 72.1%.

In turn, “RNA1{r(C)p.r(G)p.r(U)p.r(G)p.r(G)p.r(A)p.r(C)p.r(G)p.r(C)p.r(C)p.r(U)p.r(C)p.r(C)p.r(G)p.r(U)p.r(G)p.r(A)p.r(U)p.r(G)p.d(T)p.d(T)}|RNA2{r(C)p.r(A)p.r(U)p.r(C)p.r(A)p.r(C)p.r(G)p.r(G)p.r(A)p.r(G)p.r(G)p.r(C)p.r(G)p.r(U)p.r(C)p.r(C)p.r(A)p.r(C)p.r(G)p.d(T)p.d(T)}$$$RNA1{StrandType:ss}|RNA2{StrandType:as}$” came in with a normalised inhibition (eCFP-eYFP dual reporter) of 79.4%.

As for “RNA1{r(C)p.r(U)p.r(A)p.r(C)p.r(G)p.r(A)p.r(C)p.r(G)p.r(A)p.r(C)p.r(U)p.r(A)p.r(C)p.r(U)p.r(A)p.r(C)p.r(G)p.r(G)p.r(G)p.d(T)p.d(T)}|RNA2{r(C)p.r(C)p.r(C)p.r(G)p.r(U)p.r(A)p.r(G)p.r(U)p.r(A)p.r(G)p.r(U)p.r(C)p.r(G)p.r(U)p.r(C)p.r(G)p.r(U)p.r(A)p.r(G)p.d(A)p.d(A)}$$$RNA1{StrandType:ss}|RNA2{StrandType:as}$”, the normalised inhibition (eCFP-eYFP dual reporter) is 69%.

As for “RNA1{r(C)p.r(U)p.r(A)p.r(C)p.r(G)p.r(A)p.r(G)p.r(G)p.r(G)p.r(C)p.r(G)p.r(G)p.r(C)p.r(U)p.r(A)p.r(C)p.r(U)p.r(U)p.r(C)p.d(T)p.d(T)}|RNA2{r(G)p.r(A)p.r(A)p.r(G)p.r(U)p.r(A)p.r(G)p.r(C)p.r(C)p.r(G)p.r(C)p.r(C)p.r(C)p.r(U)p.r(C)p.r(G)p.r(U)p.r(A)p.r(G)p.d(T)p.d(A)}$$$RNA1{StrandType:ss}|RNA2{StrandType:as}$”, the normalised inhibition (eCFP-eYFP dual reporter) was determined as 59.8%.

The substance “RNA1{r(C)p.r(U)p.r(C)p.r(A)p.r(G)p.r(A)p.r(C)p.r(C)p.r(U)p.r(C)p.r(U)p.r(U)p.r(C)p.r(U)p.r(A)p.r(C)p.r(G)p.r(A)p.r(C)p.d(T)p.d(T)}|RNA2{r(G)p.r(U)p.r(C)p.r(G)p.r(U)p.r(A)p.r(G)p.r(A)p.r(A)p.r(G)p.r(A)p.r(G)p.r(G)p.r(U)p.r(C)p.r(U)p.r(G)p.r(A)p.r(G)p.d(C)p.d(C)}$$$RNA1{StrandType:ss}|RNA2{StrandType:as}$” yielded a normalised inhibition (eCFP-eYFP dual reporter) of 37.2%.

Regarding “RNA1{r(C)p.r(U)p.r(C)p.r(C)p.r(U)p.r(G)p.r(A)p.r(G)p.r(U)p.r(G)p.r(U)p.r(G)p.r(A)p.r(U)p.r(C)p.r(U)p.r(C)p.r(C)p.r(C)p.d(T)p.d(T)}|RNA2{r(G)p.r(G)p.r(G)p.r(A)p.r(G)p.r(A)p.r(U)p.r(C)p.r(A)p.r(C)p.r(A)p.r(C)p.r(U)p.r(C)p.r(A)p.r(G)p.r(G)p.r(A)p.r(G)p.d(A)p.d(A)}$$$RNA1{StrandType:ss}|RNA2{StrandType:as}$”, the normalised inhibition (eCFP-eYFP dual reporter) was 42.3%.

Turning to “RNA1{r(C)p.r(U)p.r(G)p.r(A)p.r(G)p.r(U)p.r(G)p.r(U)p.r(G)p.r(A)p.r(U)p.r(C)p.r(U)p.r(C)p.r(C)p.r(C)p.r(U)p.r(C)p.r(C)p.d(T)p.d(T)}|RNA2{r(G)p.r(G)p.r(A)p.r(G)p.r(G)p.r(G)p.r(A)p.r(G)p.r(A)p.r(U)p.r(C)p.r(A)p.r(C)p.r(A)p.r(C)p.r(U)p.r(C)p.r(A)p.r(G)p.d(G)p.d(A)}$$$RNA1{StrandType:ss}|RNA2{StrandType:as}$”, the normalised inhibition (eCFP-eYFP dual reporter) was determined as 23.2%.

With “RNA1{r(G)p.r(A)p.r(A)p.r(G)p.r(G)p.r(A)p.r(U)p.r(C)p.r(G)p.r(G)p.r(G)p.r(A)p.r(G)p.r(U)p.r(A)p.r(C)p.r(A)p.r(C)p.r(A)p.d(T)p.d(T)}|RNA2{r(U)p.r(G)p.r(U)p.r(G)p.r(U)p.r(A)p.r(C)p.r(U)p.r(C)p.r(C)p.r(C)p.r(G)p.r(A)p.r(U)p.r(C)p.r(C)p.r(U)p.r(U)p.r(C)p.d(C)p.d(C)}$$$RNA1{StrandType:ss}|RNA2{StrandType:as}$”, the normalised inhibition (eCFP-eYFP dual reporter) came out at 74.3%.

With “RNA1{r(G)p.r(A)p.r(C)p.r(C)p.r(A)p.r(U)p.r(U)p.r(C)p.r(U)p.r(C)p.r(C)p.r(U)p.r(G)p.r(A)p.r(G)p.r(U)p.r(G)p.r(U)p.r(G)p.d(T)p.d(T)}|RNA2{r(C)p.r(A)p.r(C)p.r(A)p.r(C)p.r(U)p.r(C)p.r(A)p.r(G)p.r(G)p.r(A)p.r(G)p.r(A)p.r(A)p.r(U)p.r(G)p.r(G)p.r(U)p.r(C)p.d(C)p.d(T)}$$$RNA1{StrandType:ss}|RNA2{StrandType:as}$”, the normalised inhibition (eCFP-eYFP dual reporter) turned out to be 44.9%.

For the substance “RNA1{r(G)p.r(A)p.r(C)p.r(G)p.r(A)p.r(G)p.r(G)p.r(G)p.r(C)p.r(G)p.r(A)p.r(U)p.r(C)p.r(U)p.r(A)p.r(U)p.r(A)p.r(C)p.r(A)p.d(T)p.d(T)}|RNA2{r(U)p.r(G)p.r(U)p.r(A)p.r(U)p.r(A)p.r(G)p.r(A)p.r(U)p.r(C)p.r(G)p.r(C)p.r(C)p.r(C)p.r(U)p.r(C)p.r(G)p.r(U)p.r(C)p.d(C)p.d(A)}$$$RNA1{StrandType:ss}|RNA2{StrandType:as}$”, the normalised inhibition (eCFP-eYFP dual reporter) worked out at 64.3%.

As to “RNA1{r(G)p.r(A)p.r(C)p.r(G)p.r(A)p.r(G)p.r(G)p.r(G)p.r(C)p.r(U)p.r(C)p.r(A)p.r(G)p.r(A)p.r(C)p.r(C)p.r(U)p.r(C)p.r(U)p.d(T)p.d(T)}|RNA2{r(A)p.r(G)p.r(A)p.r(G)p.r(G)p.r(U)p.r(C)p.r(U)p.r(G)p.r(A)p.r(G)p.r(C)p.r(C)p.r(C)p.r(U)p.r(C)p.r(G)p.r(U)p.r(C)p.d(G)p.d(G)}$$$RNA1{StrandType:ss}|RNA2{StrandType:as}$”, the normalised inhibition (eCFP-eYFP dual reporter) stood at 51.7%.

Consider “RNA1{r(G)p.r(A)p.r(C)p.r(U)p.r(A)p.r(C)p.r(C)p.r(C)p.r(A)p.r(U)p.r(A)p.r(C)p.r(U)p.r(C)p.r(U)p.r(C)p.r(C)p.r(A)p.r(C)p.d(T)p.d(T)}|RNA2{r(G)p.r(U)p.r(G)p.r(G)p.r(A)p.r(G)p.r(A)p.r(G)p.r(U)p.r(A)p.r(U)p.r(G)p.r(G)p.r(G)p.r(U)p.r(A)p.r(G)p.r(U)p.r(C)p.d(G)p.d(A)}$$$RNA1{StrandType:ss}|RNA2{StrandType:as}$”, for which the normalised inhibition (eCFP-eYFP dual reporter) stood at 65.9%.

In turn, “RNA1{r(G)p.r(A)p.r(G)p.r(U)p.r(A)p.r(C)p.r(U)p.r(G)p.r(C)p.r(G)p.r(U)p.r(G)p.r(A)p.r(A)p.r(G)p.r(A)p.r(C)p.r(C)p.r(A)p.d(T)p.d(T)}|RNA2{r(U)p.r(G)p.r(G)p.r(U)p.r(C)p.r(U)p.r(U)p.r(C)p.r(A)p.r(C)p.r(G)p.r(C)p.r(A)p.r(G)p.r(U)p.r(A)p.r(C)p.r(U)p.r(C)p.d(G)p.d(G)}$$$RNA1{StrandType:ss}|RNA2{StrandType:as}$” showed a normalised inhibition (eCFP-eYFP dual reporter) of 73.7%.

Consider “RNA1{r(G)p.r(A)p.r(U)p.r(C)p.r(U)p.r(A)p.r(U)p.r(A)p.r(C)p.r(A)p.r(A)p.r(C)p.r(U)p.r(G)p.r(G)p.r(G)p.r(A)p.r(G)p.r(G)p.d(T)p.d(T)}|RNA2{r(C)p.r(C)p.r(U)p.r(C)p.r(C)p.r(C)p.r(A)p.r(G)p.r(U)p.r(U)p.r(G)p.r(U)p.r(A)p.r(U)p.r(A)p.r(G)p.r(A)p.r(U)p.r(C)p.d(G)p.d(C)}$$$RNA1{StrandType:ss}|RNA2{StrandType:as}$”, for which the normalised inhibition (eCFP-eYFP dual reporter) was 41.7%.

On to “RNA1{r(G)p.r(A)p.r(U)p.r(G)p.r(U)p.r(A)p.r(C)p.r(A)p.r(G)p.r(G)p.r(A)p.r(A)p.r(G)p.r(U)p.r(G)p.r(G)p.r(A)p.r(A)p.r(A)p.d(T)p.d(T)}|RNA2{r(U)p.r(U)p.r(U)p.r(C)p.r(C)p.r(A)p.r(C)p.r(U)p.r(U)p.r(C)p.r(C)p.r(U)p.r(G)p.r(U)p.r(A)p.r(C)p.r(A)p.r(U)p.r(C)p.d(A)p.d(C)}$$$RNA1{StrandType:ss}|RNA2{StrandType:as}$”, for which the normalised inhibition (eCFP-eYFP dual reporter) was 82.9%.

“RNA1{r(G)p.r(C)p.r(C)p.r(C)p.r(G)p.r(A)p.r(C)p.r(G)p.r(A)p.r(G)p.r(G)p.r(G)p.r(C)p.r(U)p.r(C)p.r(A)p.r(G)p.r(A)p.r(C)p.d(T)p.d(T)}|RNA2{r(G)p.r(U)p.r(C)p.r(U)p.r(G)p.r(A)p.r(G)p.r(C)p.r(C)p.r(C)p.r(U)p.r(C)p.r(G)p.r(U)p.r(C)p.r(G)p.r(G)p.r(G)p.r(C)p.d(G)p.d(C)}$$$RNA1{StrandType:ss}|RNA2{StrandType:as}$” came in with a normalised inhibition (eCFP-eYFP dual reporter) of 33.6%.

With “RNA1{r(G)p.r(C)p.r(G)p.r(A)p.r(U)p.r(C)p.r(U)p.r(A)p.r(U)p.r(A)p.r(C)p.r(A)p.r(A)p.r(C)p.r(U)p.r(G)p.r(G)p.r(G)p.r(A)p.d(T)p.d(T)}|RNA2{r(U)p.r(C)p.r(C)p.r(C)p.r(A)p.r(G)p.r(U)p.r(U)p.r(G)p.r(U)p.r(A)p.r(U)p.r(A)p.r(G)p.r(A)p.r(U)p.r(C)p.r(G)p.r(C)p.d(C)p.d(C)}$$$RNA1{StrandType:ss}|RNA2{StrandType:as}$”, the normalised inhibition (eCFP-eYFP dual reporter) amounted to 74%.

For the substance “RNA1{r(G)p.r(C)p.r(G)p.r(C)p.r(C)p.r(U)p.r(C)p.r(A)p.r(A)p.r(G)p.r(U)p.r(U)p.r(C)p.r(C)p.r(C)p.r(C)p.r(A)p.r(U)p.r(C)p.d(T)p.d(T)}|RNA2{r(G)p.r(A)p.r(U)p.r(G)p.r(G)p.r(G)p.r(G)p.r(A)p.r(A)p.r(C)p.r(U)p.r(U)p.r(G)p.r(A)p.r(G)p.r(G)p.r(C)p.r(G)p.r(C)p.d(G)p.d(C)}$$$RNA1{StrandType:ss}|RNA2{StrandType:as}$”, the normalised inhibition (eCFP-eYFP dual reporter) worked out at 58%.

With “RNA1{r(G)p.r(C)p.r(U)p.r(G)p.r(C)p.r(C)p.r(C)p.r(U)p.r(C)p.r(A)p.r(G)p.r(A)p.r(G)p.r(A)p.r(G)p.r(G)p.r(U)p.r(G)p.r(G)p.d(T)p.d(T)}|RNA2{r(C)p.r(C)p.r(A)p.r(C)p.r(C)p.r(U)p.r(C)p.r(U)p.r(C)p.r(U)p.r(G)p.r(A)p.r(G)p.r(G)p.r(G)p.r(C)p.r(A)p.r(G)p.r(C)p.d(T)p.d(C)}$$$RNA1{StrandType:ss}|RNA2{StrandType:as}$”, the normalised inhibition (eCFP-eYFP dual reporter) stood at 39.3%.

The substance “RNA1{r(G)p.r(G)p.r(A)p.r(A)p.r(G)p.r(C)p.r(A)p.r(G)p.r(G)p.r(U)p.r(C)p.r(C)p.r(U)p.r(G)p.r(G)p.r(G)p.r(G)p.r(A)p.r(C)p.d(T)p.d(T)}|RNA2{r(G)p.r(U)p.r(C)p.r(C)p.r(C)p.r(C)p.r(A)p.r(G)p.r(G)p.r(A)p.r(C)p.r(C)p.r(U)p.r(G)p.r(C)p.r(U)p.r(U)p.r(C)p.r(C)p.d(G)p.d(G)}$$$RNA1{StrandType:ss}|RNA2{StrandType:as}$” displayed a normalised inhibition (eCFP-eYFP dual reporter) of 58.4%.
